Experimental findings from PubChem BioAssay AID330 (DTP/NCI, 2004) are described below.

Values joined by “and” are separate entries in the source; they are usually repeats but may differ in a detail not shown here. Equal values may be shown once. Toxic doses and inconclusive results are not listed.

The subject of the test is P388 leukemia ip, CD2F1 mice, survival T/C. Briefly: NCI In Vivo Anticancer Drug Screen. Data for tumor model P388 Leukemia (intraperitoneal) in CD2F1 (CDF1) mice. As to conditions: endpoint: median survival time, higher = longer survival. The gist of the method: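 Mice carrying the transplanted tumor received test compound or vehicle. Survival was recorded in each group, and the value is the treated-group measurement divided by that of the vehicle-treated control group.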

[1] abbreviates: dose: 50.0 mg/kg/injection, schedule: Q01DX005 (ip), vehicle: saline with Tween-80.
Where [2] appears, read: dose: 100.0 mg/kg/injection, schedule: Q01DX005 (ip), vehicle: saline with Tween-80.
Where [3] appears, read: dose: 200.0 mg/kg/injection, schedule: Q01DX005 (ip), vehicle: saline with Tween-80.
Setting [4] is: dose: 50.0 mg/kg/injection, schedule: Q01DX009 (ip), vehicle: saline with Tween-80.
Where [5] appears, read: dose: 100.0 mg/kg/injection, schedule: Q01DX009 (ip), vehicle: saline with Tween-80.
Setting [6] is: dose: 100.0 mg/kg/injection, schedule: Q04DX003 (ip), vehicle: saline with Tween-80.
[7] abbreviates: dose: 200.0 mg/kg/injection, schedule: Q04DX003 (ip), vehicle: saline with Tween-80.
The mark [8] stands for this setting: dose: 50.0 mg/kg/injection, schedule: Q01DX005 (ip), vehicle: Klucel (hydroxypropylcellulose) (HPC).
Where [9] appears, read: dose: 100.0 mg/kg/injection, schedule: Q01DX005 (ip), vehicle: Klucel (hydroxypropylcellulose) (HPC).
[10] abbreviates: dose: 200.0 mg/kg/injection, schedule: Q01DX005 (ip), vehicle: Klucel (hydroxypropylcellulose) (HPC).

Regarding `C=C(NC(=O)c1csc(-c2nc3c(cc2O)-c2nc(cs2)C(=O)NC(C(C)O)C(=O)N/C(=C\C)c2nc(cs2)C(=O)NC2CC(O)C(=O)OCc4cccc5[nH]c(c(C)c45)C(=O)SCC(NC(=O)c4csc2n4)c2nc-3cs2)n1)C(N)=O` (centres undefined), the T/C by setting is: (dose: 15.0 mg/kg/injection, schedule: Q01DX009 (ip), vehicle: Klucel (hydroxypropylcellulose) (HPC)) 100 % of control; (dose: 30.0 mg/kg/injection, schedule: Q01DX009 (ip), vehicle: Klucel (hydroxypropylcellulose) (HPC)) 99 % of control; (dose: 60.0 mg/kg/injection, schedule: Q01DX009 (ip), vehicle: Klucel (hydroxypropylcellulose) (HPC)) 91 % of control; (dose: 120.0 mg/kg/injection, schedule: Q01DX009 (ip), vehicle: Klucel (hydroxypropylcellulose) (HPC)) 88 % of control.
For `O=C1CN(c2ccccc2)C(=O)CN1/N=C/c1ccco1`, the T/C reads like this: (dose: 12.5 mg/kg/injection, schedule: Q01DX005 (ip), vehicle: saline with Tween-80) 100 % of control; (dose: 25.0 mg/kg/injection, schedule: Q01DX005 (ip), vehicle: saline with Tween-80) 95 % of control; under setting [1], 100 % of control and 94 % of control; under setting [2], 98 % of control; under setting [3], 103 % of control.
As for `CC1(C)CCCC2C1=NOC2O` (centres undefined), the T/C is 100 % of control (dose: 50.0 mg/kg/injection, schedule: Q01DX009 (ip), vehicle: saline); 96 % of control (dose: 100.0 mg/kg/injection, schedule: Q01DX009 (ip), vehicle: saline); 100 % of control (dose: 200.0 mg/kg/injection, schedule: Q01DX009 (ip), vehicle: saline).
For the molecule `O=c1c(N=Nc2nc3ccc([N+](=O)[O-])cc3s2)c(O)n(-c2ccccc2)c(=S)n1-c1ccccc1`, the T/C reads like this: (dose: 60.0 mg/kg/injection, schedule: Q01DX005 (ip), vehicle: saline) 96 % of control; (dose: 120.0 mg/kg/injection, schedule: Q01DX005 (ip), vehicle: saline) 96 % of control; (dose: 240.0 mg/kg/injection, schedule: Q01DX005 (ip), vehicle: saline) 92 % of control.
In the case of `COc1ccc(C(=O)C(c2ccc(OC)c(OC)c2O)C(OC)OC)c(O)c1` (centres undefined), the T/C reads like this: (dose: 75.0 mg/kg/injection, schedule: Q04DX003 (ip), vehicle: Klucel (hydroxypropylcellulose) (HPC)) 100 % of control; (dose: 150.0 mg/kg/injection, schedule: Q04DX003 (ip), vehicle: Klucel (hydroxypropylcellulose) (HPC)) 98 % of control; (dose: 300.0 mg/kg/injection, schedule: Q04DX003 (ip), vehicle: Klucel (hydroxypropylcellulose) (HPC)) 98 % of control.
As to `O=[N+]([O-])c1ccc(-c2nc(/C=N/N3CCS(=O)(=O)CC3)cs2)o1`, the T/C (dose: 25.0 mg/kg/injection, schedule: Q01DX009 (ip), vehicle: saline with Tween-80) was 99 % of control; the T/C under setting [4] is 99 % of control; the T/C under setting [5] was 100 % of control.
Regarding `CN(C)N(P(c1ccccc1)c1ccccc1)P(c1ccccc1)c1ccccc1`, the T/C by setting is: under setting [6], 93 % of control; under setting [7], 92 % of control; (dose: 400.0 mg/kg/injection, schedule: Q04DX003 (ip), vehicle: saline with Tween-80) 94 % of control.
Consider `COc1ccc(C=C2C(=O)C=CC2=O)cc1`, for which the T/C (dose: 1.25 mg/kg/injection, schedule: Q04DX002 (ip), vehicle: saline with Tween-80) is 106 % of control; the T/C (dose: 2.5 mg/kg/injection, schedule: Q04DX002 (ip), vehicle: saline with Tween-80) is 97 % of control; the T/C (dose: 5.0 mg/kg/injection, schedule: Q04DX002 (ip), vehicle: saline with Tween-80) was 99 % of control.
In the case of `O=C1OCc2cc(O)ccc21`, the T/C was 102 % of control under setting [8], 100 % of control under setting [9] and 104 % of control under setting [10].
For `CCOC(=O)NC(CC(C)C)C(=O)NC(CC(C)C)C(=O)OC(C)(C)C` (centres undefined), the T/C is, setting by setting: under setting [1], 98 % of control; under setting [2], 99 % of control; under setting [3], 100 % of control.
Consider `CCOC(=O)c1cn[nH]c(=O)c1C`, for which the T/C reads like this: under setting [4], 100 % of control; under setting [5], 96 % of control; (dose: 200.0 mg/kg/injection, schedule: Q01DX009 (ip), vehicle: saline with Tween-80) 104 % of control.
As for `CC1(C)COC2(C)ON12` (centres undefined), the T/C under setting [1] is 106 % of control, the T/C under setting [2] was 117 % of control and the T/C under setting [3] is 113 % of control.
In the case of `CC[C@@]1(O)C[C@H](OC2CC(N(C)C)C(OC3CC(O)C(OC4CC(O)C(O)C(C)O4)C(C)O3)C(C)O2)c2c(cc3c(c2O)C(=O)c2c(O)ccc(O)c2C3=O)[C@H]1C(=O)OC` (some centres undefined), the T/C reads like this: (dose: 1.8 mg/kg/injection, schedule: Q04DX003 (ip), vehicle: water) 157 % of control; (dose: 2.7 mg/kg/injection, schedule: Q04DX003 (ip), vehicle: water) 155 % of control; (dose: 3.8 mg/kg/injection, schedule: Q01DX001 (ip), vehicle: other) 163 % of control; (dose: 7.5 mg/kg/injection, schedule: Q01DX001 (ip), vehicle: other) 157 % of control.
For the molecule `CCP(=O)(CC)CC`, the T/C (dose: 25.0 mg/kg/injection, schedule: Q01DX005 (ip), vehicle: saline) is 98 % of control; the T/C (dose: 50.0 mg/kg/injection, schedule: Q01DX005 (ip), vehicle: saline) is 105 % of control; the T/C (dose: 100.0 mg/kg/injection, schedule: Q01DX005 (ip), vehicle: saline) is 99 % of control; the T/C (dose: 200.0 mg/kg/injection, schedule: Q01DX005 (ip), vehicle: saline) is 99 % of control; the T/C (dose: 400.0 mg/kg/injection, schedule: Q01DX005 (ip), vehicle: saline) was 99 % of control.
In the case of `COC(=O)C1CC2(C(=O)O)CC(C(=O)O)(CC(C(=O)OC)C2=O)C1=O` (centres undefined), the T/C by setting is: (dose: 50.0 mg/kg/injection, schedule: Q04DX003 (ip), vehicle: saline with Tween-80) 101 % of control; under setting [6], 101 % of control; under setting [7], 104 % of control.
In the case of `N=C(N)c1ccc(N=Nc2cc(N=Nc3ccccc3)ccc2O)cc1`, the T/C runs as follows: (dose: 25.0 mg/kg/injection, schedule: Q01DX005 (ip), vehicle: Klucel (hydroxypropylcellulose) (HPC)) 109 % of control; under setting [8], 113 % of control; under setting [9], 115 % of control; under setting [10], 115 % of control.
In the case of `CC(=N\NC(N)=S)/C(C)=N/Nc1ccccc1`, the T/C (dose: 100.0 mg/kg/injection, schedule: Q04DX003 (ip), vehicle: Klucel (hydroxypropylcellulose) (HPC)) is 106 % of control; the T/C (dose: 200.0 mg/kg/injection, schedule: Q04DX003 (ip), vehicle: Klucel (hydroxypropylcellulose) (HPC)) is 100 % of control; the T/C (dose: 400.0 mg/kg/injection, schedule: Q04DX003 (ip), vehicle: Klucel (hydroxypropylcellulose) (HPC)) is 100 % of control.
On to `Cc1ccc(C2CNC(=S)S2)cc1` (centres undefined), for which the T/C reads like this: (dose: 50.0 mg/kg/injection, schedule: Q01DX009 (ip), vehicle: DMSO) 92 % of control; (dose: 100.0 mg/kg/injection, schedule: Q01DX009 (ip), vehicle: DMSO) 98 % of control; (dose: 200.0 mg/kg/injection, schedule: Q01DX009 (ip), vehicle: DMSO) 98 % of control.
As to `CC12CCCN1C(=O)C1(C)CCCN1C2=O` (centres undefined), the T/C by setting is: (dose: 100.0 mg/kg/injection, schedule: Q04DX003 (ip), vehicle: saline) 101 % of control; (dose: 200.0 mg/kg/injection, schedule: Q04DX003 (ip), vehicle: saline) 98 % of control; (dose: 400.0 mg/kg/injection, schedule: Q04DX003 (ip), vehicle: saline) 97 % of control.
Take `O=C(CCCN1CCC2(CC1)C(=O)NCN2c1ccc(F)cc1)c1ccc(F)cc1`: the T/C by setting is: under setting [1], 103 % of control; under setting [2], 95 % of control; under setting [3], 94 % of control.
Take `COc1ccc(N=C(CC(C)C)C2C(=O)c3ccccc3C2=O)cc1`: the T/C was 100 % of control under setting [8], 109 % of control under setting [9] and 104 % of control under setting [10].
On to `CCOC(=O)/C=C/c1ccc(C(=O)OCC)[nH]1`, for which the T/C (dose: 25.0 mg/kg/injection, schedule: Q01DX009 (ip), vehicle: Klucel (hydroxypropylcellulose) (HPC)) is 101 % of control; the T/C (dose: 50.0 mg/kg/injection, schedule: Q01DX009 (ip), vehicle: Klucel (hydroxypropylcellulose) (HPC)) was 100 % of control; the T/C (dose: 100.0 mg/kg/injection, schedule: Q01DX009 (ip), vehicle: Klucel (hydroxypropylcellulose) (HPC)) was 107 % of control; the T/C (dose: 200.0 mg/kg/injection, schedule: Q01DX009 (ip), vehicle: Klucel (hydroxypropylcellulose) (HPC)) is 97 % of control.
